According to patent publication US11696917B2, “Agent enhancing antitumor effect using pyrazolo[3,4-d]pyrimidine compound” (TAIHO PHARMACEUTICAL CO., LTD., priority 2017, dated 2023):

Key:
[1] = tested on: Human stomach cancer cells 4-1st; test: Combination of Compound 1 and trastuzumab emtansine (in vivo), subcutaneous tumor in nude mice; conditions: for T/C (%): Day 15; for BWC (%) Day 15 Mean: mouse, in vivo, po
Text: Human stomach cancer cells 4-1st were obtained as fragment tumor from the Central Institute for Experimental Animals. Tumor was excised approximately one month after subcutaneous transplantation and passage in a nude mouse (BALB/cAJcl-nu/nu, CLEA Japan, Inc.), and prepared into a fragment of approximately 2 mm square. A transplantation needle was packed with one fragment and subcutaneously inserted from around the right most distal rib of a nude mouse. After entrance to the right back, the inner cylinder was pushed to eject and transplant the tumor. Electronic calipers were used in tumor size measurement, and the major axis and the minor axis of the tumor of each mouse were measured by sandwiching the tumor between the measuring surfaces of the electronic calipers (Days 0, 4, 8, 11 and 15). A tumor volume (TV) was calculated from the major axis and the minor axis. A relative tumor volume (RTV) and a rate of change in relative tumor volume (T/C) were calculated from the calculated tumor volume. TV, RTV, and T/C were calculated according to the following expressions. Tumor volume TV (mm^3)=(Major axis, mm)×(Minor axis, mm)×(Minor axis, mm)/2 Relative tumor volume RTV=(TV on the day of measurement)/(TV on the day of grouping) Rate of change in relative tumor volume T/C (%)=(Average RTV of an administration group)/(Average RTV of a control group)×100
An electronic balance for animals was used in body weight measurement. A rate of change in body weight on day n (BWCn) was calculated from the body weight on day n (BWn) according to the following expression. Rate of change in body weight BWCn (%)=(BWn−BW0)/BW0×100
Nude mice whose TV reached 100 to 300 mm^3 were selected, and six animals were assigned to each group by the equal number method (MiSTAT (ver. 2.0)) such that average TV was equalized among groups.
The presence or absence of an effect of combined use and toxicity were determined from tumor sizes and body weights on the day of grouping (Day 0) and the day of evaluation (Day 15). During the administration period, the body weights were measured every day for the calculation of the amount of a dosing solution.

[2] = tested on: human stomach cancer cell line NCI-N87; test: Combination of Compound 1 and capecitabine (in vivo), subcutaneous tumor in nude mice; design: species or system nude mouse (BALB/cAJcl-nu/nu); conditions: for T/C (%): Day 15
Description: A human stomach cancer cell line NCI-N87 was obtained from American Type Culture Collection (ATCC). The cell line was cultured at 37° C. in a 5% CO2 incubator using RPMI-1640 (containing 4.5 g/L glucose, 10 mM HEPES, and 1 mM sodium pyruvate) (Wako Pure Chemical Industries, Ltd.) medium containing 10% fetal bovine serum (FBS).
The NCI-N87 cells were resuspended at a concentration of 8×10^7 cells/mL in PBS.
The cell suspension was subcutaneously transplanted in an amount of 8×10^6 cells/0.1 mL to the right chest of a 6-week-old nude mouse (BALB/cAJcl-nu/nu, CLEA Japan, Inc.) using a 1 mL syringe for tuberculin and a 25 G injection needle.
Electronic calipers were used in tumor size measurement.

[3] = tested on: Human stomach cancer cells 4-1st; test: Combination of Compound 1 and trastuzumab (in vivo), subcutaneous tumor in nude mice; design: species or system nude mouse (BALB/cAJcl-nu/nu); conditions: for T/C (%): Day 15; for BWC (%) Day 15 Mean: mouse, in vivo, po
[4] = Compound 1 7.5 mg/kg/day p.o. Days 1-14
[5] = Compound 1 15 mg/kg/day p.o. Days 1-14
[6] = Compound 1 30 mg/kg/day p.o. Days 1-14

C=CC(=O)N1CCC[C@@H](n2nc(C(=O)Nc3ccc(CC(=O)N(C)C)c(C)c3C)c3c(N)ncnc32)C1 [Compound 1, (R)-1-(1-acryloylpiperidin-3-yl)-4-amino-N-(4-(2-(dimethylamino)-2-oxoethyl)-2,3-dimethylphenyl)-1H-pyrazolo[3,4-d]pyrimidine-3-carboxamide]
RTV Day 15 Mean ± SD [1, 4]: 5.92 ± 0.38
T/C (%) [1, 4]: 51.6%
RTV Day 15 Mean ± SD [1, 5]: 3.58 ± 0.41
T/C (%) [1, 5]: 31.2%
BWC (%) Day 15 Mean ([1]; 7.5 mg/kg/day): 7.41%
BWC (%) Day 15 Mean ([1]; 15 mg/kg/day): 3.63%
BWC (%) Day 15 Mean [2, 5]: 8.35%
RTV Day 15 Mean ± SD [2, 5]: 1.69 ± 0.39
T/C (%) [2, 5]: 40.8%
BWC (%) Day 15 Mean [2, 6]: 6.43%
RTV Day 15 Mean ± SD [2, 6]: 0.67 ± 0.15
T/C (%) [2, 6]: 16.3%
RTV Day 15 Mean + SD [3, 4]: 6.55 ± 0.37
T/C (%) [3, 4]: 49.0%
RTV Day 15 Mean + SD [3, 5]: 3.77 ± 0.32
T/C (%) [3, 5]: 28.2%
BWC (%) Day 15 Mean ([3]; 7.5 mg/kg/day): 5.06%
BWC (%) Day 15 Mean ([3]; 15 mg/kg/day): 0.82%
